Experimental data published in patent US12275684B2, “Methods for making and using endoxifen” (Atossa Therapeutics, Inc., priority 2017, dated 2025).
Like-named read-outs stand apart in the source and are kept apart here.

Assay: Placebo controlled, dose escalation pharmacokinetic study of oral (Z)-Endoxifen capsules (serum endoxifen; incl. accumulation ratios and dose linearity)
Type: in vivo, human
Details: for AUC(0-t) / Cmax / Tmax / half-life / AUC(0-inf) / AUC / Vd/F: female, human, serum, po; for AUC(0-inf): read-out: AUC0-inf; for AUC: read-out: AUC to last time point; for Vd/F: read-out: volume of distribution (Vd/F); for time to attain steady state: once daily oral dosing
Source text: An objective of the study was to assess the safety and tolerability of oral (Z)-Endoxifen when administered […] orally as a capsule to healthy female volunteers. A secondary objective was to assess the pharmacokinetics of multiple doses of oral (Z)-Endoxifen in the subjects.
Generally, healthy female volunteers aged ≥18 years and ≤65 years were enrolled. 24 participants were enrolled in 3 cohorts and will be administered study drug orally. Three dose levels of orally administered (Z)-Endoxifen were investigated in 3 cohorts. In each cohort participants were randomized to receive an oral (Z)-Endoxifen or placebo in a blinded fashion. Enteric-resistant capsules used in the study were designed as delayed release capsules to resist rupture for at least 30 minutes, but typically, for about 2 hours, under gastric conditions and then open fully in intestinal fluid (DRCaps; Capsugel, a Lonza Company, USA). Enteric-resistant (Swedish Orange size Zero (0); Capsugel, USA) DRCaps capsules manually filled with 1, 2 or 4 mg of (Z)-endoxifen neat in compliance with GMP requirements were used. Placebo capsules contained microcrystalline cellulose an inert common capsule and tablet excipient.
Each cohort enrolled 8 participants, with 6 participants receiving (Z)-Endoxifen 1 mg capsules orally at 1 mg (Cohort 1), 2 mg (Cohort 2) or 4 mg (Cohort 3) doses and 2 participants receiving matching placebo capsules. In Cohort 1 (Dose Level=1 mg) two participants (sentinels) were dosed 24 hours prior to the remaining participants. One sentinel was dosed with (Z)-Endoxifen and the other with placebo. The remaining six participants in Cohort 1 were dosed as no safety concerns were identified in the sentinel participants. The non-sentinel participants in Cohort 1 were admitted to the clinical research facility at least one day later than the sentinels. There were no sentinels in Cohorts 2 and 3.
Participant engagement in this study was for a period of 56 days. These included a 28 day screening period, and a 7 day post treatment period for Pharmacokinetic (PK) sampling. There were two confinement periods, one at the beginning and one at the end of the dosing periods. Participants were confined to the clinical facility on Days-1 through to Day 2 and Days 21 and 22. If participants were to experience any clinically significant adverse events during the study, they would have been required to remain in the clinical facility for further observation at the discretion of the Principal Investigator (PI).
Healthy female volunteers were screened within 28 days prior to commencement of dosing. Participants were admitted to the clinical facility on Day-1 for up to 3 days. The first dose of (Z)-Endoxifen or placebo capsules was administered on Day 1. Following completion of all safety assessments and sampling for PK analyses, participants were discharged from the clinical facility on Day 2. The first dose on Day 1 was followed by a 6-day treatment free period (Days 2-7). Each participant returned to the clinical facility for PK blood draws and safety assessments during the treatment free period on study Days 4 and 6. On Day 8 participants commenced daily administration of (Z)-Endoxifen capsules or placebo capsules for 14 consecutive days (Days 8-21). Participants were supplied with study drug capsules and asked to self administer daily. Participants visited the clinical facility on Days 11, 14 and 17, prior to dose administration, for PK blood draws and safety assessments. On the morning of Day 21 each participant returned to the clinical facility prior to dose administration and were confined to the facility until Day 22 to allow for the collection of PK blood draws and safety assessments. The Day 21 dose was the last administration of study drug. Participants were discharged from the clinical facility on Day 22 and returned for PK blood draws and safety assessments on study Days 24, 26, and 28. […]

[1] = 4 mg, Day 1, dose 4 mg oral, GeoMean, N 6
[2] = 4 mg, Day 1, dose 4 mg oral, Mean, N 6
[3] = 4 mg, Day 1, dose 4 mg oral, Median, N 6

AUC(0-t) (2 mg/day, Day 21, 2 mg/day oral (n = 6), read-out: AUC24 hr, Arithmetic Mean): 911 ng·h/mL
Cmax (2 mg/day, Day 21, 2 mg/day oral (n = 6), read-out: Cmax, Arithmetic Mean): 50 ng/mL
Tmax (2 mg/day, Day 21, 2 mg/day oral (n = 6), read-out: Median Tmax): 4 h
Tmax (2 mg/day, Day 21, 2 mg/day oral (n = 6), read-out: Tmax (Range)): 2 to 6.05 h
half-life (2 mg/day, Day 21, 2 mg/day oral (n = 6), read-out: t1/2, Arithmetic Mean (converted)): 43.4 h
AUC(0-inf) [1]: 1700 ng·h/mL
AUC(0-t) (4 mg, Day 1, dose 4 mg oral, GeoMean, N 6, read-out: AUC24hr): 521 ng·h/mL
AUC [1]: 1420 ng·h/mL
Cmax (4 mg, Day 1, dose 4 mg oral, GeoMean, N 6, read-out: Cmax): 29.1 ng/mL
Tmax (4 mg, Day 1, dose 4 mg oral, GeoMean, N 6, read-out: Tmax): 5.15 h
half-life (4 mg, Day 1, dose 4 mg oral, GeoMean, N 6, read-out: apparent terminal half life (t½) (converted)): 40.7 h
Vd/F [1]: 138 L
AUC(0-inf) [2]: 2020 ng·h/mL
AUC(0-t) (4 mg, Day 1, dose 4 mg oral, Mean, N 6, read-out: AUC24hr): 587 ng·h/mL
AUC [2]: 1650 ng·h/mL
Cmax (4 mg, Day 1, dose 4 mg oral, Mean, N 6, read-out: Cmax): 32.5 ng/mL
Tmax (4 mg, Day 1, dose 4 mg oral, Mean, N 6, read-out: Tmax): 5.56 h
half-life (4 mg, Day 1, dose 4 mg oral, Mean, N 6, read-out: apparent terminal half life (t½) (converted)): 41.6 h
Vd/F [2]: 154 L
AUC(0-inf) [3]: 1760 ng·h/mL
AUC(0-t) (4 mg, Day 1, dose 4 mg oral, Median, N 6, read-out: AUC24hr): 539 ng·h/mL
AUC [3]: 1420 ng·h/mL
Cmax (4 mg, Day 1, dose 4 mg oral, Median, N 6, read-out: Cmax): 29.5 ng/mL
Tmax (4 mg, Day 1, dose 4 mg oral, Median, N 6, read-out: Tmax): 5.08 h
half-life (4 mg, Day 1, dose 4 mg oral, Median, N 6, read-out: apparent terminal half life (t½) (converted)): 39.9 h
Vd/F [3]: 131 L
AUC(0-t) (4 mg, Day 21, dose 4 mg oral once daily, GeoMean, N 6, read-out: AUC24hr): 1740 ng·h/mL
Cmax (4 mg, Day 21, dose 4 mg oral once daily, GeoMean, N 6, read-out: Cmax): 100 ng/mL
Tmax (4 mg, Day 21, dose 4 mg oral once daily, GeoMean, N 6, read-out: Tmax): 4.75 h
half-life (4 mg, Day 21, dose 4 mg oral once daily, GeoMean, N 6, read-out: apparent terminal half life (t½) (converted)): 44.6 h
Vd/F (4 mg, Day 21, dose 4 mg oral once daily, GeoMean, N 6): 148 L
AUC(0-t) (4 mg, Day 21, dose 4 mg oral once daily, Mean, N 6, read-out: AUC24hr): 2040 ng·h/mL
Cmax (4 mg, Day 21, dose 4 mg oral once daily, Mean, N 6, read-out: Cmax): 115 ng/mL
Tmax (4 mg, Day 21, dose 4 mg oral once daily, Mean, N 6, read-out: Tmax): 5.33 h
half-life (4 mg, Day 21, dose 4 mg oral once daily, Mean, N 6, read-out: apparent terminal half life (t½) (converted)): 45.1 h
Vd/F (4 mg, Day 21, dose 4 mg oral once daily, Mean, N 6): 189 L
AUC(0-t) (4 mg, Day 21, dose 4 mg oral once daily, Median, N 6, read-out: AUC24hr): 2470 ng·h/mL
Cmax (4 mg, Day 21, dose 4 mg oral once daily, Median, N 6, read-out: Cmax): 131 ng/mL
Tmax (4 mg, Day 21, dose 4 mg oral once daily, Median, N 6, read-out: Tmax): 5 h
half-life (4 mg, Day 21, dose 4 mg oral once daily, Median, N 6, read-out: apparent terminal half life (t½) (converted)): 45.3 h
Vd/F (4 mg, Day 21, dose 4 mg oral once daily, Median, N 6): 106 L
AUC(0-t) (4 mg/day, Day 1, 4 mg/day oral (n = 6), read-out: AUC24 hr, Arithmetic Mean): 587 ng·h/mL
Cmax (4 mg/day, Day 1, 4 mg/day oral (n = 6), read-out: Cmax, Arithmetic Mean): 32.5 ng/mL
Tmax (4 mg/day, Day 1, 4 mg/day oral (n = 6), read-out: Median Tmax): 5.08 h
Tmax (4 mg/day, Day 1, 4 mg/day oral (n = 6), read-out: Tmax (Range)): 3 to 6 h
half-life (4 mg/day, Day 1, 4 mg/day oral (n = 6), read-out: t1/2, Arithmetic Mean (converted)): 41.6 h
AUC(0-t) (4 mg/day, Day 21, 4 mg/day oral (n = 6), read-out: AUC24 hr, Arithmetic Mean): 2040 ng·h/mL
Cmax (4 mg/day, Day 21, 4 mg/day oral (n = 6), read-out: Cmax, Arithmetic Mean): 115 ng/mL
Tmax (4 mg/day, Day 21, 4 mg/day oral (n = 6), read-out: Median Tmax): 5 h
Tmax (4 mg/day, Day 21, 4 mg/day oral (n = 6), read-out: Tmax (Range)): 2 to 10 h
half-life (4 mg/day, Day 21, 4 mg/day oral (n = 6), read-out: t1/2, Arithmetic Mean (converted)): 45.1 h
time to attain steady state: ≤ 7 days
time to attain steady state (listed as (Z)-endoxifen): approximately 7 days
Structure (SMILES): CC/C(=C(\c1ccc(O)cc1)c1ccc(OCCNC)cc1)c1ccccc1 [(Z)-Endoxifen, (Z)-4-(1-(4-(2-(methylamino)ethoxy)phenyl)-2-phenylbut-1-enyl) phenol]
